The experiment addresses T1, human 4lg B7-H3 (Homo sapiens, UniProt Q5ZPR3).
T1 sequence (Q5ZPR3 29-534): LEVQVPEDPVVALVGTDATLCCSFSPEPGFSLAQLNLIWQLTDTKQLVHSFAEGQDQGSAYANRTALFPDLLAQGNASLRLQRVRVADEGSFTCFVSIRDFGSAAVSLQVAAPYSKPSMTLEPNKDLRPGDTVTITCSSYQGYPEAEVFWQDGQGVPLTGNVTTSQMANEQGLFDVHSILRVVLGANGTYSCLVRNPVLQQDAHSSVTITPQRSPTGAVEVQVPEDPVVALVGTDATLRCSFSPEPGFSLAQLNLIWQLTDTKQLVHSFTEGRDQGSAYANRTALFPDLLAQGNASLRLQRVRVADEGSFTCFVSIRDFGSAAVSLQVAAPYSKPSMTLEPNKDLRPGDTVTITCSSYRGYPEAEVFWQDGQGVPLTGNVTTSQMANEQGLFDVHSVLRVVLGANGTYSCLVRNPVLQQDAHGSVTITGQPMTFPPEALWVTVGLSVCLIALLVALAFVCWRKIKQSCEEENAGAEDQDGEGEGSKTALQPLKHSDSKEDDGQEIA
Kind of experiment: Affinity determination by surface plasmon resonance (SPR) to 4Ig B7-H3. The conditions noted are these: 4Ig B7-H3.

The mark [1] stands for this setting: SPR KD—25° C., 25° C. flow cell temperature.
[2] abbreviates: SPR KD—37° C., 37° C. flow cell temperature.

Starred links: 1 amine or outer side, 2 acyl side, 3 side chain; linkers in the order of their positions; H or OH if unused. Positions of bridges follow the written chain, without caps; N, C: chain ends. Non-standard residues stand in square brackets, D forms with d. Residues, ends and D or L forms follow the SMILES beside them. Groups on a side chain read outwards from the residue. ξ: configuration not given here. *: point of attachment. X16 = O=C(O)CCOCCOCCOCCOCCOCCOCCOCCOCCOCCOCCOCCOCCOCCOCCOCCOCCOCCOCCOCCOCCOCCC(=O)*; Ala(piperidin-4-yl) = O=C([C@H](CC1CCN([*:3])CC1)N[*:1])[*:2]; DOTA = O=C(O)CN1CCN(CC(=O)O)CCN(CC(=O)*)CCN(CC(=O)O)CC1; Phe(4-COOH) = N[C@@H](Cc1ccc(C(=O)O)cc1)C(=O)O; Trp(5-F) = N[C@@H](Cc1c[nH]c2ccc(F)cc12)C(=O)O; γGlu = O=C(O)[C@H](CCC(=O)[*:2])N[*:1]; 1Nal = N[C@@H](Cc1cccc2ccccc12)C(=O)O; Ala(4-THP) = N[C@@H](CC1CCOCC1)C(=O)O; Val(3-OH) = CC(C)(O)[C@H](N)C(=O)O; 4Pal = N[C@@H](Cc1ccncc1)C(=O)O; aThr = C[C@H](O)[C@H](N)C(=O)O; PEG4 = NCCOCCOCCOCCOCCC(=O)O; Tle = CC(C)(C)[C@H](N)C(=O)O; hLeu = CC(C)CC[C@H](N)C(=O)O; NMeC = CN[C@@H](CS)C(=O)O; Nle = CCCC[C@H](N)C(=O)O; ξP = O=C(O)C1CCCN1; Sar = CNCC(=O)O

In the case of `CC(=O)N[C@@H](CCC(C)C)C(=O)N[C@@H](Cc1ccc(O)cc1)C(=O)N[C@H]1CSSC[C@@H](C(=O)N[C@@H](Cc2c[nH]c3ccc(F)cc23)C(=O)N[C@@H](Cc2ccccc2)C(=O)N2CCC[C@H]2C(N)=O)NC(=O)[C@H](Cc2ccc(O)cc2)NC(=O)[C@H](C(C)C)NC(=O)[C@H](CC(=O)O)NC(=O)[C@H](Cc2ccc(C(=O)O)cc2)NC(=O)[C@H](CCCCNC(=O)CN2CCN(CC(=O)O)CCN(CC(=O)O)CCN(CC(=O)O)CC2)NC(=O)CNC(=O)[C@H](C(C)C)NC1=O` [compound 289, Ac-hLeu-Y-C-V-G-Lys(DOTA)-4COOHPhe-D-V-Y-C-5FW-F-Pro-CONH2] (Ac-[hLeu]YCVGK(DOTA)[Phe(4-COOH)]DVYC[Trp(5-F)]FP-NH2; disulfide 3-11), under setting [1], the Kd was 0.001 to 0.01 µM. Still for that read-out and setting: the result for `CC(=O)N[C@@H](CCC(C)C)C(=O)N[C@@H](Cc1ccc(O)cc1)C(=O)N(C)[C@H]1CSSC[C@@H](C(=O)N[C@@H](Cc2c[nH]c3ccc(F)cc23)C(=O)N[C@@H](Cc2ccccc2)C(=O)N[C@H](C(=O)N[C@H](CCCCNC(=O)CN2CCN(CC(=O)O)CCN(CC(=O)O)CCN(CC(=O)O)CC2)C(N)=O)[C@@H](C)O)NC(=O)[C@H](Cc2ccc(O)cc2)NC(=O)[C@H](C(C)C)NC(=O)[C@H](CC(=O)O)NC(=O)[C@H](Cc2ccc(O)cc2)NC(=O)[C@H](CCCCN)NC(=O)CNC(=O)[C@H](C(C)C)NC1=O` [compound 237, Ac-hLeu-Y-NMeCys-V-G-K-Y-D-V-Y-C-5FW-F-Thr-dLys(DOTA)-CONH2] (Ac-[hLeu]Y[NMeC]VGKYDVYC[Trp(5-F)]FT[dK](DOTA)-NH2; disulfide 3-11) reads 0.001 to 0.01 µM.

The molecule `CCCC[C@H](NC(C)=O)C(=O)N[C@@H](Cc1ccc(O)cc1)C(=O)N[C@H]1CSSC[C@@H](C(=O)N[C@@H](Cc2c[nH]c3ccccc23)C(=O)N[C@@H](Cc2ccccc2)C(=O)N[C@H](C(=O)N[C@H](CCCCNC(=O)CN2CCN(CC(=O)O)CCN(CC(=O)O)CCN(CC(=O)O)CC2)C(N)=O)[C@@H](C)O)NC(=O)[C@H](Cc2ccc(O)cc2)NC(=O)[C@H](C(C)C)NC(=O)[C@H](CC(=O)O)NC(=O)[C@H](Cc2ccc(O)cc2)NC(=O)[C@H](CCCCNC(C)=O)NC(=O)CNC(=O)[C@H](C(C)C)NC1=O` [compound 65, Ac-Nle-Y-C-V-G-Lys(Ac)-Y-D-V-Y-C-W-F-Thr-dLys(DOTA)-CONH2] (Ac-[Nle]YCVGK(Ac)YDVYCWFT[dK](DOTA)-NH2; disulfide 3-11) came in with a dissociation constant Kd under setting [1] of 0.01 to 0.1 µM. As to `CC(=O)N[C@@H](CCC(C)C)C(=O)N[C@@H](Cc1ccc(O)cc1)C(=O)N[C@H]1CSSC[C@@H](C(=O)N[C@@H](Cc2c[nH]c3ccc(F)cc23)C(=O)N[C@@H](Cc2ccccc2)C(=O)N[C@H](C(=O)N[C@H](CCCCNC(=O)CN2CCN(CC(=O)O)CCN(CC(=O)O)CCN(CC(=O)O)CC2)C(=O)O)[C@@H](C)O)NC(=O)[C@H](Cc2ccc(O)cc2)NC(=O)[C@H](C(C)C)NC(=O)[C@H](CC(=O)O)NC(=O)[C@H](CC2CCOCC2)NC(=O)[C@H](CCCCNC(=O)CCOCCOCCOCCOCCOCCOCCOCCOCCOCCOCCOCCOCCOCCOCCOCCOCCOCCOCCOCCOCCOCCC(=O)O)NC(=O)CNC(=O)[C@H](C(C)(C)C)NC1=O` [compound 341, Ac-hLeu-Y-C-Tbg-G-K(PEG21-COOH)-ThpA-D-V-Y-C-5FW-F-Thr-dLys(DOTA)-COOH] (Ac-[hLeu]YC[Tle]GK(X16)[Ala(4-THP)]DVYC[Trp(5-F)]FT[dK](DOTA)-OH; disulfide 3-11), the Kd under setting [2] lay within 0.01 to 0.1 µM. Consider `CC(=O)N[C@@H](CCC(C)C)C(=O)N[C@@H](Cc1ccc(O)cc1)C(=O)N[C@H]1CSSC[C@@H](C(=O)N[C@@H](Cc2c[nH]c3ccccc23)C(=O)N[C@@H](Cc2ccccc2)C(=O)N[C@H](C(=O)N[C@H](CCCCNC(=O)CN2CCN(CC(=O)O)CCN(CC(=O)O)CCN(CC(=O)O)CC2)C(N)=O)[C@@H](C)O)NC(=O)[C@H](Cc2ccc(O)cc2)NC(=O)[C@H]([C@H](C)O)NC(=O)[C@H](CC(=O)O)NC(=O)[C@H](Cc2ccc(O)cc2)NC(=O)[C@H](CCCCN)NC(=O)CNC(=O)[C@H](C(C)C)NC1=O` [compound 125, Ac-hLeu-Y-C-V-G-K-Y-D-alloThr-Y-C-W-F-Thr-dLys(DOTA)-CONH2] (Ac-[hLeu]YCVGKYD[aThr]YCWFT[dK](DOTA)-NH2; disulfide 3-11), for which the Kd under setting [1] fell in the range of 0.1 to 0.3 µM.

Take `COc1ccc(C[C@@H]2NC(=O)[C@H](C(C)C)NC(=O)[C@H](CC(=O)O)NC(=O)[C@H](Cc3ccncc3)NC(=O)[C@H](CCCCNC(=O)CN3CCN(CC(=O)O)CCN(CC(=O)O)CCN(CC(=O)O)CC3)NC(=O)CNC(=O)[C@H](C(C)C)NC(=O)[C@@H](NC(=O)[C@H](Cc3ccc(O)cc3)NC(=O)[C@H](CCC(C)C)NC(C)=O)CSSC[C@@H](C(=O)N[C@@H](Cc3cccc4ccccc34)C(=O)N[C@@H](Cc3ccccc3)C(=O)N3CCCC3C(N)=O)NC2=O)cc1` (stereo partly drawn) [compound 309, Ac-hLeu-Y-C-V-G-Lys(DOTA)-4PyA-D-V-OMeTyr-C-1Nal-F-Pro-CONH2] (Ac-[hLeu]YCVGK(DOTA)[4Pal]DVY(Me)C[1Nal]F[ξP]-NH2; disulfide 3-11): under setting [1], the Kd fell in the range of 0.001 to 0.01 µM.

As for `CC(=O)N[C@@H](CCC(C)C)C(=O)N[C@@H](Cc1ccc(O)cc1)C(=O)N[C@H]1CSSC[C@@H](C(=O)N[C@@H](Cc2cccc3ccccc23)C(=O)N[C@@H](Cc2ccccc2)C(=O)N[C@H](C(=O)N[C@H](CCC(=O)O)C(N)=O)C(C)(C)O)NC(=O)[C@H](Cc2ccc(O)cc2)NC(=O)[C@H](C(C)C)NC(=O)[C@H](CC(=O)O)NC(=O)[C@H](CC2CCN(C(=O)CCOCCOCCOCCOCCNC(=O)CN3CCN(CC(=O)O)CCN(CC(=O)O)CCN(CC(=O)O)CC3)CC2)NC(=O)[C@H](CC2CCNCC2)NC(=O)CNC(=O)[C@H](C(C)(C)C)NC1=O` [compound 454, Ac-hLeu-Y-C-Tbg-G-PipAla-Pip(PEG4-DOTA)Ala-D-V-Y-C-1Nal-F-hydroxyVal-dGlu-CONH2] (Ac-[hLeu]YC[Tle]G[Ala(piperidin-4-yl)][Ala(piperidin-4-yl)]([PEG4-DOTA])DVYC[1Nal]F[Val(3-OH)][dE]-NH2; disulfide 3-11), the dissociation constant Kd under setting [2] is less than 0.001 µM. Same read-out and setting: the result for `CCCC[C@H](NC(C)=O)C(=O)N[C@@H](Cc1ccc(O)cc1)C(=O)N[C@H]1CSSC[C@@H](C(=O)N[C@@H](Cc2c[nH]c3ccccc23)C(=O)N[C@@H](Cc2ccccc2)C(=O)N[C@@H](CCC(=O)N[C@H](CCCCNC(=O)CN2CCN(CC(=O)O)CCN(CC(=O)O)CCN(CC(=O)O)CC2)C(N)=O)C(=O)O)NC(=O)[C@H](Cc2ccc(O)cc2)NC(=O)[C@H](C(C)C)NC(=O)[C@H](CC(=O)O)NC(=O)[C@H](Cc2ccc(O)cc2)NC(=O)[C@H](CCCCN)NC(=O)CNC(=O)[C@H](C(C)C)NC1=O` [compound 31, Ac-Nle-Y-C-V-G-K-Y-D-V-Y-C-W-F-gE-dLys(DOTA)-CONH2] (Ac-[Nle]YCVGKYDVYCWF[γGlu][dK](DOTA)-NH2; disulfide 3-11) reads 0.1 to 0.3 µM. `CC(=O)N[C@@H](CCC(C)C)C(=O)N[C@@H](Cc1ccc(O)cc1)C(=O)N[C@H]1CSSC[C@@H](C(=O)N[C@@H](Cc2c[nH]c3ccccc23)C(=O)N[C@@H](Cc2ccccc2)C(=O)N[C@H](C(=O)N[C@H](CCCCNC(=O)CN2CCN(CC(=O)O)CCN(CC(=O)O)CCN(CC(=O)O)CC2)C(N)=O)[C@@H](C)O)NC(=O)[C@H](Cc2ccc(O)cc2)NC(=O)[C@H](C(C)C)NC(=O)[C@H](CC(=O)O)NC(=O)[C@H](Cc2ccc(O)cc2)NC(=O)[C@H](CCCCN)NC(=O)CN(C)C(=O)[C@H](C(C)(C)C)NC1=O` [compound 75, Ac-hLeu-Y-C-Tbg-Sar-K-Y-D-V-Y-C-W-F-Thr-dLys(DOTA)-CONH2] (Ac-[hLeu]YC[Tle][Sar]KYDVYCWFT[dK](DOTA)-NH2; disulfide 3-11) displayed a Kd under setting [1] of 0.001 to 0.01 µM.
